From US6632981B1, “DNA sequences encoding polypeptides having beta-1,3-glucanase activity” (Novartis Finance Corporation, priority 1988, dated 2003)

What was measured:
[1] = system: chemically regulatable chimeric genes coding for GUS, AHAS or BT; assay: Primer extension assay for mRNA of chemically regulatable chimeric genes; assay type: in vivo; conditions: callus or regenerated plant material from transgenic plants; level proportional to amount of regulator applied
Experimental: 50 g of total RNA is lyophilized in a 500 l Eppendorf tube. The RNA is resuspended in 30 l of radiolabeled probe solution and heated to 70′ C. for 10 minutes. The tube is slowly cooled to 37° C. and allowed to incubate overnight. Without removing the tube from the 37° C. water bath, 2 l of 10×reverse-transcriptase buffer (500 mM Tris-HCl, pH 7.5, 400 mM KCl, 30 mM MgCl2), 1 l 5 mg/ml bovine serum albumin, 5 l 100 mM dithiothreitol, 5 l 10×dNTPs (10 mM of each dNTP in H2O), 3 l H 20, 2 l RNasin (80 units), and 2 l reverse transcriptase (400 units) are added and the reaction is incubated at 37° C. for 30 minutes. To stop the reaction, 5 l of 3 M sodium acetate, pH 5, and 150 l absolute ethanol are added. The tube is left at −20° C. for 30 minutes, the precipitate is collected by centrifugation, washed with 80% ethanol and allowed to air-dry. The precipitate is resuspended in 10-20 l of loading dye (90% formamide, 0.05% bromophenol blue, 0.05% xylene cyanol, 1 mM EDTA) and the extension products are separated on a 6% sequencing gel (Maniatis, T. et al., supra). Extension products are visualized by autoradiography.
Plant materials induced and harvested as in Examples 140 to 142 are assayed for the induction of mRNA species by the isolation of RNA and the primer extension assay as described in Example 6.
The level of mRNA is proportional to the amount of regulator applied.

[2] = system: cucumber chitinase protein; assay: Cucumber chitinase ELISA in transgenic plants carrying cucumber chitinase genomic constructs after leaf treatment; assay type: in vivo, tobacco; parameters: key: —: Indicates that sample has no detectable level of chitinase protein
Experimental: Once the transgenic plants are transferred to soil, they are grown 4-5 weeks before treatment. The following solutions are applied to the leaves with sterile paintbrushes:
3. Methyl benzo-1,2,3-thiadiazole-7-carboxylate. The solution is made by resuspending a wettable powder containing a formulation of the chemical with 25% active ingredient in sterile water at a concentration of 1 mg/ml.
4. Methyl 2,6-dichloroisonicotinate, prepared as above. Alternatively, 30 ul of 10 mM sodium phosphate buffer, pH 7.0, or 30 ul of the same buffer containing tobacco mosaic virus (50-100 pfu/30 ul) is applied to the leaves which have been sprinkled with carborundum. The buffers are distributed over the whole treated leaf by gentle rubbing.
The plants are allowed to continue to grow for seven days. The treated leaves are then harvested, frozen in liquid nitrogen and stored at −80° C. until they are assayed.
Frozen leaf tissue is ground in a mortar with a pestle in the presence of liquid nitrogen to produce a fine powder. 0.33 g of each tissue sample is added to 1 ml extraction buffer (50 mM Tris-HCl, pH 8.5, 0.2M 2-mercaptoethanol, 2 mM phenyl methyl sulfonyl fluoride, 2 mM benzamidine, 10 mM epsilon-aminocaproic acid, 1 mM leueptine) and the sample homogenized for one minute with an Ultra Turrax Mixer (shaft #S25N-8G, Tekmar Co. Cincinnati, Ohio). The samples are then centrifuged at 48,000×g for fifteen minutes at 4° C. and the supernatant removed from the pelleted material. The extracts are diluted at least 1:50 in ELISA diluent (101 mM sodium phosphate, pH 7.4, 140 mM sodium chloride, 0.05% Tween 20, 0.02% sodium azide, 1% BSA).
A microtiter plate is coated with monoclonal antibody specific to the cucumber chitinase protein at 2 ug/ml in borate-buffered saline (100 mM boric acid, 25mM sodium borate, 75 mM sodium chloride; pH 8.5) using 50 ul per well. The plate is incubated overnight at 4° C. The plate is washed with ELISA wash buffer (10 mM Tris-HCl, pH 8.0, 0.05% Tween 20, 3 mM sodium azide) and BSA blocking solution (10 mM sodium phosphate, pH 7.4, 140 mM sodium chloride, 0.02% sodium azide, 1% BSA) is added to completely cover each well. Incubation is for at least 30 minutes at room temperature.
The microtiter plate is washed with ELISA wash buffer and 50 ul of extract is added to the appropriate well. 50 ul of each of 10 chitinase protein standards (ranging from 0 ng/ml to 31.64 ng/ml) was also added to the appropriate well and the plate is incubated for two hours at 4° C. The plate is washed with ELISA wash buffer and 50 ul of rabbit polyclonal antibody to the cucumber chitainase protein (diluted 1:15,000 in ELISA diluent) is added to the well and incubated for one hour at 37° C. After washing with ELISA wash buffer, 50 ul of goat anti-rabbit conjugated to alkaline phosphatase (1:500 in ELISA diluent) is added to each well and incubated at 37° C. for one hour. The plate is then washed and 50 ul alkaline phosphatase substrate solution (0.6 mg/ml p-nitrophenyl phosphate in 0.5 mM magnesium chloride and 10% diethanolamine) is added to each well. After a 30 minute incubation at room temperature, 50 ul of 3N sodium hydroxide is added to each well to stop the reaction.
The plate is read at 405 nm and 492 nm on an HP Genenchem ELISA plate reader. The output values are expressed as A(405 nm)-A(492 nm)−0.092 to allow for correction of p-nitrophenyl phosphate as substrate. The chitinase standards for each plate are graphed logarithmically. The amount of chitinase protein in each sample is determined from the standard curve. If the amount of chitinase in any sample is close to the upper limit of the curve, the sample is assayed again at a greater dilution. Final results are expressed in the table below in ug chitinase per gram tissue.

## COC(=O)c1cc(Cl)nc(Cl)c1 [MDCINA, Methyl 2,6-dichloroisonicotinate]
[1]
  level of mRNA of the chimeric gene (GUS, AHAS or BT primer), primer extension assay: elevated levels of mRNA
[2]; line Bam-1 (2001/BamChit), leaves harvested after seven days, water 0.066, buffer —
  ELISA ASSAY RESULTS (ug chitinase/g tissue): —
[2]; line Bam-3 (2001/BamChit), seven days, water —, buffer —
  ELISA ASSAY RESULTS (ug chitinase/g tissue): —
[2]; line Bam-4 (2001/BamChit), seven days, water —, buffer —
  ELISA ASSAY RESULTS (ug chitinase/g tissue): —
[2]; line Bam-8 (2001/BamChit), seven days, water —, buffer —
  ELISA ASSAY RESULTS (ug chitinase/g tissue): —
[2]; line Bam-9 (2001/BamChit), seven days, water —, buffer —
  ELISA ASSAY RESULTS (ug chitinase/g tissue): —
[2]; line Bam-10 (2001/BamChit), seven days, water 0.059, buffer 0.084
  ELISA ASSAY RESULTS (ug chitinase/g tissue): 2.378 ug chitinase/g tissue
[2]; line Bam-12 (2001/BamChit), seven days, water —, buffer —
  ELISA ASSAY RESULTS (ug chitinase/g tissue): —
[2]; line Bam-14 (2001/BamChit), seven days, water —, buffer —
  ELISA ASSAY RESULTS (ug chitinase/g tissue): —
[2]; line Bam-15 (2001/BamChit), seven days, water —, buffer —
  ELISA ASSAY RESULTS (ug chitinase/g tissue): —
[2]; line Bam-16 (2001/BamChit), seven days, water —, buffer —
  ELISA ASSAY RESULTS (ug chitinase/g tissue): 0.864 ug chitinase/g tissue
[2]; line Bam-17 (2001/BamChit), seven days, water —, buffer —
  ELISA ASSAY RESULTS (ug chitinase/g tissue): —
[2]; line Bam-19 (2001/BamChit), seven days, water —, buffer —
  ELISA ASSAY RESULTS (ug chitinase/g tissue): —
[2]; line Bam-21 (2001/BamChit), seven days, water —, buffer —
  ELISA ASSAY RESULTS (ug chitinase/g tissue): —
[2]; line Bam-23 (2001/BamChit), seven days, water —, buffer —
  ELISA ASSAY RESULTS (ug chitinase/g tissue): —
[2]; line Bam-24 (2001/BamChit), seven days, water —, buffer —
  ELISA ASSAY RESULTS (ug chitinase/g tissue): —
[2]; line Bam-25 (2001/BamChit), seven days, water —, buffer —
  ELISA ASSAY RESULTS (ug chitinase/g tissue): —
[2]; line Bam-26 (2001/BamChit), seven days, water —, buffer —
  ELISA ASSAY RESULTS (ug chitinase/g tissue): —
[2]; line Nco-2 (2001/NcoChit), seven days, water —, buffer —
  ELISA ASSAY RESULTS (ug chitinase/g tissue): —
[2]; line Nco-3 (2001/NcoChit), seven days, water —, buffer —
  ELISA ASSAY RESULTS (ug chitinase/g tissue): —
[2]; line Nco-5 (2001/NcoChit), seven days, water —, buffer —
  ELISA ASSAY RESULTS (ug chitinase/g tissue): —
[2]; line Nco-8 (2001/NcoChit), seven days, water —, buffer —
  ELISA ASSAY RESULTS (ug chitinase/g tissue): —
[2]; line Nco-9 (2001/NcoChit), seven days, water —, buffer —
  ELISA ASSAY RESULTS (ug chitinase/g tissue): —
[2]; line Nco-10 (2001/NcoChit), seven days, water —, buffer —
  ELISA ASSAY RESULTS (ug chitinase/g tissue): —
[2]; line Nco-11 (2001/NcoChit), seven days, water —, buffer —
  ELISA ASSAY RESULTS (ug chitinase/g tissue): —
[2]; line Nco-15 (2001/NcoChit), seven days, water —, buffer —
  ELISA ASSAY RESULTS (ug chitinase/g tissue): —
[2]; line Nco-16 (2001/NcoChit), seven days, water 0.555, buffer 0.566
  ELISA ASSAY RESULTS (ug chitinase/g tissue): 0.286 ug chitinase/g tissue
[2]; line Nco-17 (2001/NcoChit), seven days, water —, buffer —
  ELISA ASSAY RESULTS (ug chitinase/g tissue): —
[2]; line Sal-2 (2001/SalChit), seven days, water —, buffer —
  ELISA ASSAY RESULTS (ug chitinase/g tissue): —
[2]; line Sal-3 (2001/SalChit), seven days, water —, buffer —
  ELISA ASSAY RESULTS (ug chitinase/g tissue): 0.047 ug chitinase/g tissue
[2]; line Sal-4 (2001/SalChit), seven days, water —, buffer —
  ELISA ASSAY RESULTS (ug chitinase/g tissue): —
[2]; line Sal-5 (2001/SalChit), seven days, water —, buffer —
  ELISA ASSAY RESULTS (ug chitinase/g tissue): —
[2]; line Sal-7 (2001/SalChit), seven days, water —, buffer —
  ELISA ASSAY RESULTS (ug chitinase/g tissue): —
[2]; line Sal-8 (2001/SalChit), seven days, water —, buffer —
  ELISA ASSAY RESULTS (ug chitinase/g tissue): —
[2]; line Sal-9 (2001/SalChit), seven days, water —, buffer —
  ELISA ASSAY RESULTS (ug chitinase/g tissue): —
[2]; line Sal-11 (2001/SalChit), seven days, water —, buffer —
  ELISA ASSAY RESULTS (ug chitinase/g tissue): —
[2]; line Sal-12 (2001/SalChit), seven days, water —, buffer —
  ELISA ASSAY RESULTS (ug chitinase/g tissue): —
[2]; line Sal-13 (2001/SalChit), seven days, water —, buffer —
  ELISA ASSAY RESULTS (ug chitinase/g tissue): —
[2]; line Sal-14 (2001/SalChit), seven days, water —, buffer —
  ELISA ASSAY RESULTS (ug chitinase/g tissue): —
[2]; line Sal-15 (2001/SalChit), seven days, water —, buffer —
  ELISA ASSAY RESULTS (ug chitinase/g tissue): —
